According to US20130261045A1, “GREEN TEA POLYPHENOL ALPHA SECRETASE ENHANCERS AND METHODS OF USE” (UNIVERSITY OF SOUTH FLORIDA, priority 2005, published 2013):
Peptide text beside a SMILES is read from it. * marks the point of attachment. Cbz = O=C(OCc1ccccc1)*

Experiments:
Assay type in all cases: cell-based, murine
[1] = tested on: APP cleavage processing; experiment: Western blot/immunoprecipitation of APP cleavage (CTFs, sAPP-α, holo APP) in APP-transfected N2a cells; details: for α-CTF production: at the high dose; for α-CTF generation and α-CTF to β-CTF ratio: 80 μM; for effect on the action of EGCG on α-CTF cleavage: GC or C 80 μM with EGCG, FIG. 2F
Protocol: Cell cultured supernatants were collected and cell lysates were prepared from these cultured cells.
Cultured cells and mouse brain were lysed in ice-cold lysis buffer described above, and an aliquot corresponding to 50 μg of total protein was electrophoretically separated using 16.5% Tris-tricine gels. Electrophoresed proteins were then transferred to PVDF membranes (Bio-Rad), washed in dH2O, and blocked for 1 hour at ambient temperature in Tris-buffered saline (TBS; Bio-Rad) containing 5% (w/v) for non-fat dry milk. After blocking, membranes were hybridized for 1 hour at ambient temperature with various antibodies, including against the C- (369), N-terminus of APP (22C11), the N-terminus of Aβ (6E10), and ADAM10 and TACE (Calbiochem). Membranes were then washed 3× for 5 min each in dH2O and incubated for 1 hour at ambient temperature with the appropriate HRP-conjugated secondary antibody (1:1,000, Pierce Biotechnology, Inc. Rockford, Ill.). All antibodies were diluted in TBS containing 5% (w/v) of non-fat dry milk. Blots were developed using the luminal reagent (Pierce Biotechnology). Densitometric analysis was done using the Fluor-S Multimager™ with Quantity One™ software (Bio-Rad). Immunoprecipitation was performed for detection of sAPP-α, sAPP-β and Aβ by incubating 200 μg of total protein of each sample with 6E10 (1:100; Signet) or 22C11 (1:100; Roche, Basel, Switzerland) overnight with gentle rocking at 4° C., and 10 μL of 50% protein A-Sepharose beads were then added to the sample (1:10; Sigma) prior to gentle rocking for an additional 4 hours at 4° C. Following washes with 1× cell lysis buffer, samples were subjected to Western blot as described above. Antibodies used for Western blot included antibody 369 (1:1,000), anti-C-terminal APP antibody (1:500; Chemicon, Temecula, Calif.), BAM-10 (1:1,000; Sigma), 6E10 (1:1,000; Signet) or anti-Actin antibody (1:1,500; as an internal reference control; Roche). α-, β- and γ-secretase activities were quantified in cell lysates and mouse brain homogenates using available kits based on secretase-specific peptides conjugated to fluorogenic receptor molecules (R&D Systems, Minneapolis, Minn.).

[2] = tested on: Aβ generation; experiment: Aβ ELISA, conditioned media of APP-transfected N2a cells (Example 1); details: co-treatment with EGCG 20 μM, GC or C 80 μM, 12 hours; SweAPP N2a cells
Protocol: Aβ1-40 and 1-42 peptides were analyzed in the conditioned media from SweAPP N2a cells (FIGS. 1A, 1C, 1D) and transgenic APPsw mouse-derived primary neuronal cells (FIG. 1B) by ELISA (n=3 for each condition).
TAPI-1, β and γ-secretase inhibitors were obtained from Calbiochem (San Diego, Calif.). Green tea extract (75% polyphenols) was obtained from the Vitamin Shoppe™ (North Bergen, N.J.).
Cultured cells were lysed in ice-cold-lysis buffer (20 mM Tris, pH 7.5, 150 mM NaCl, 1 mM EDTA, 1 mM EGTA, 1% v/v Triton X-100, 2.5 mM sodium pyropgosphate, 1 mM β-glycerolphosphate, 1 mM Na3VO4, 1 μg/mL leupeptin, 1 mM PMSF) as previously described (Tan et al., 2002). Mouse brains were isolated under sterile conditions on ice and placed in ice-cold lysis buffer. Brains were then sonicated on ice for approximately 3 min, allowed to stand for 15 min at 4° C., and centrifuged at 15,000 rpm for 15 min. Total Aβ1-42 species were detected by acid extraction of brain homogenates in 5 M guanidine buffer (ret), followed by a 1:10 dilution in lysis buffer. Soluble Aβ1-42 was directly detected in cultured cell lysates or brain homogenates prepared with lysis buffer described above by a 1:4 or 1:10 dilution, respectively. Aβ1-42 was quantified in these samples using the Aβ1-42 ELISA kit (BioSource, Camarillo, Calif.) in accordance with the manufacturer's instructions, except that standards included a 0.5 M guanidine buffer.
In order to examine the effects of green tea's components on APP cleavage processing, for a first step, N2a neuroblastoma cells overproducing Aβ were treated with each of the aforementioned components at a wide range of doses. In addition, doses of (+)-catechin hydrate (CH) and gallic acid monohydrate (GAM) were included in the first step.

[3] = tested on: α-secretase; experiment: α-secretase cleavage activity kit, lysates of APP-transfected N2a cells; details: TAPI-1 25 μM with EGCG 20 μM, 4 hours; FIGS. 3d and e
[4] = 0.5 μM to 1.5 μM, SweAPP N2a cells, data not shown

Oc1cc(O)c2c(c1)O[C@@H](c1ccc(O)c(O)c1)[C@@H](O)C2 [(+) EC, (+)-epicatechin]
α-CTF production [1]: increases

Oc1cc(O)c2c(c1)O[C@H](c1ccc(O)c(O)c1)[C@H](O)C2 [(−) EC, (−)-epicatechin]
α-CTF production [1]: increases

Oc1cc(O)c2c(c1)O[C@H](c1cc(O)c(O)c(O)c1)[C@@H](O)C2 [GC, (−)-gallocatechin]
effect on the ability of EGCG to reduce Aβ production [2]: markedly inhibits the ability of EGCG to reduce Aβ production
α-CTF generation and α-CTF to β-CTF ratio [1]: decreased
effect on the action of EGCG on α-CTF cleavage [1]: significantly opposes

CC(C)C[C@H](CC(=O)NO)C(=O)N[C@@H](Cc1ccc2ccccc2c1)C(=O)N[C@@H](C)C(=O)NCCN [TAPI-1, reference compound]
effect on EGCG promotion of APP α-secretase cleavage [3]: significantly attenuated

CC(C)C[C@@H](C=O)NC(=O)[C@H](CC(C)C)NC(=O)[C@@H](NC(=O)OCc1ccccc1)C(C)C [β-secretase inhibitor II, reference compound] (Cbz-Val-Leu-Leu-aldehyde)
sAPP-α levels compared with EGCG [1, 4]: failed to produce the same increased α-CTF and sAPP-α levels as EGCG
α-CTF levels compared with EGCG [1, 4]: failed to produce the same increased α-CTF and sAPP-α levels as EGCG

(−)-catechin
effect on the ability of EGCG to reduce Aβ production [2]: markedly inhibits the ability of EGCG to reduce Aβ production
α-CTF generation and α-CTF to β-CTF ratio [1]: decreased
effect on the action of EGCG on α-CTF cleavage [1]: significantly opposes
